Results reported in patent publication US6077871A, “Droloxifene pharmaceutical compositions” (Pfizer Inc., priority 1998, dated 2000).
Where a name gives a salt, the structure may show the parent alone. Read-outs that look alike come from different tables or passages of the source.

Tests used:
[1] = Stability of droloxifene out of light / in light-protected solutions; assay type: physicochemical
Source text: The results in Table 2 (below) show a stability enhancement of droloxifene with the inclusion of cyclodextrins. The concentration of cyclodextrin that results in the greatest stabilizing effect depends on the efficiency of the formation of the droloxifene-cyclodextrin inclusion complex, that is, the stability constant, as well as the initial concentration of droloxifene present. […] This stability improvement is further useful for preconstituted aqueous solutions which must have a long practical shelf-life, e.g., 2 years, even if packaged in a partially light-protected package. […] While not wishing to be held to any theory, it is believed that incorporation of droloxifene in the cyclodextrin cavity minimizes a cis-trans isomerization reaction, thus reducing the formation of the isomeric decay product and resulting in an overall stability improvement.

[2] = pH 3
Experimental: The solubility of droloxifene citrate was determined in an aqueous phosphate buffer at pH 3, without and with various levels of cyclodextrins. Solubility testing of droloxifene citrate in solutions of the cydodextrins, SBECD and HPBCD, was conducted using an equilibrium solubility method. The following protocol was employed for the solubility determination.
Separate 0.02 M aqueous buffer solutions of phosphoric acid (H3 PO4) and 0.02 M dibasic sodium phosphate (Na2 HPO4) were prepared by dissolving 2.25 gm and 2.84 gm, respectively, into separate one liter portions of deionized water and stirring with a magnetic stir bar until dissolved. To obtain a pH 3 buffer, the two previous buffers were combined, at an approximate ratio of 2:1 (H3 PO4 buffer:Na2 HPO4 buffer). The final volume of the resulting pH 3 buffer was not critical.
To 25 mL volumetric flasks, weights of either HPBCD or SBECD were added to produce final concentrations of each cyclodextrin shown in Table 1. For example, to prepare a 2% w/v solution of HPBCD in pH 3 phosphate buffer, 0.5 gm of HPBCD was accurately added to a 25 mL volumetric flask. […]
To 5 mL glass vials with screw caps, 3 mL of the desired cyclodextrin solution was added. […] The contents were filtered into a clean screw cap vial through a Millex-HV 0.45 μm filter (Millipore, Bedford, Mass.) and the drug concentration determined by an HPLC method. […]

[3] = pH 3, 30° C., 840 footcandle fluorescent light
Experimental: The stability of droloxifene citrate was determined at pH 3 with various concentrations of SBECD and HPBCD. For this protocol, the 0.02 M sodium phosphate buffer of pH 3 and the cyclodextrin solutions were prepared as for the droloxifene solubility determination described previously. 10 mL of each cyclodextrin solution was added to an 18 mL clear glass vial with screw cap which contained a previously weighed amount of droloxifene citrate. The vials were swirled until dissolution of droloxifene citrate was complete. The concentration of droloxifene citrate ranged from 0.05-0.1 mgA/mL. Concentrations of HPBCD included 0.2, 2, 4, 7 and 10% w/v. Concentrations of SBECD included 0.33 and 3.3% w/v. The vials were stored in an 840 footcandle fluorescent light box at 30° C. The solutions were removed briefly from time to time to allow drug concentration determination using the HPLC method described as for the solubility determination.

Compound | stability in light-protected solutions ([1]; light-protected solutions with beta-cyclodextrins present) | stability out of light ([1]; out of light vs in light) | solubility with cyclodextrin [2] | Decay Rate Constant ([3]; 0.2% HPBCD) [h⁻¹] | Time Required for 1% Decay ([3]; 0.2% HPBCD) [h] | Decay Rate Constant ([3]; 0.33% SBECD) [h⁻¹] | Time Required for 1% Decay ([3]; 0.33% SBECD) [h] | Decay Rate Constant ([3]; 2% HPBCD) [h⁻¹] | Time Required for 1% Decay ([3]; 2% HPBCD) [h] | Decay Rate Constant ([3]; 3.3% SBECD) [h⁻¹] | Time Required for 1% Decay ([3]; 3.3% SBECD) [h] | Decay Rate Constant ([3]; no cyclodextrin) [h⁻¹] | Time Required for 1% Decay ([3]; no cyclodextrin) [h]
CC/C(=C(/c1ccc(OCCN(C)C)cc1)c1cccc(O)c1)c1ccccc1 [droloxifene, 1-[4'-(2-dimethylaminoethoxy)phenyl]-1-(3'-hydroxyphenyl)-2-phenylbut-1-ene] | an improvement in stability is also observed | significantly more stable out of light | – | – | – | – | – | – | – | – | – | – | –
CC/C(=C(/c1ccc(OCCN(C)C)cc1)c1cccc(O)c1)c1ccccc1 [droloxifene citrate] | – | – | enhancement of droloxifene citrate solubility with cyclodextrin | 0.0094 | 1.1 | 0.0090 | 1.1 | 0.0030 | 3.3 | 0.0070 | 1.4 | 0.0123 | 0.8
